The numbers were not newly measured in paper PMC5613016, “GRL-09510, a Unique P2-Crown-Tetrahydrofuranylurethane -Containing HIV-1 Protease Inhibitor, Maintains Its Favorable Antiviral Activity against Highly-Drug-Resistant HIV-1 Variants in vitro” (Scientific Reports, 2017), which cites them from elsewhere.

The subject of series [1] is HIV-1ERS104pre (wild-type). The conditions noted are these: PHA-PBMs, p24 assay, previously reported; and 22; read-out: EC50 HIV-1WT/ERS104pre; cited from earlier work.
The test system of series [2] is HIV-1APV ^R 5μM. Also noted: method as in earlier work. The note with it: and 22, cited from earlier work.
In series [3] the test system is HIV-1NL4-3. The conditions noted are these: MT-4 cells, p24 assay, previously reported; and 22; cited from earlier work.
Series [4] concerns HIV-1MDR/G. Also noted: method as in earlier work. The conditions noted are these: and 22, cited from earlier work.
Series [5] has as its system HIV-1MDRmix DRV ^R 20P. The note with it: cited from earlier work.
[6] abbreviates: compared to HIV-1WT/ERS104pre, previously reported data.

Molecules are shown by their SMILES.

Take `COc1ccc(S(=O)(=O)N(CC(C)C)C[C@@H](O)[C@H](Cc2ccccc2)NC(=O)O[C@H]2CO[C@H]3O[C@@H]4OCC[C@@H]4[C@H]32)cc1` [GRL-0519]: the EC50 was 0.6 ± 0.2 nM in series [1]; 38 ± 0.9 nM in series [2] (MT-4 cells, p24 assay, previously reported, read-out: EC50 HIV-1APVR5M); 0.5 ± 0.1 nM in series [3]; 2.6 ± 1.3 nM in series [4] (PHA-PBMs, p24 assay, previously reported); 30 ± 9.8 nM in series [5] (PHA-PBMs, p24 assay, previously reported, read-out: EC50 HIV-1MDRmixDRVR20P). In series [2] (compared to HIV-1NL4-3, previously reported data), the “fold change in EC50 HIV-1APVR5M” value is given as 76. Also, the “fold change in EC50 HIV-1MDR/G” value in series [4] (setting [6]) is listed as 4. Further, the “fold change in EC50 HIV-1MDRmixDRVR20P” value in series [5] (setting [6]) is on record as 50.
